Laboratory results taken from patent US6680292B1 (The Salk Institute for Biological Studies, priority 1998, dated 2004).
“Also recorded” adds a separate entry of the source.

Legend:
PC12 cells [1] = experiment: Growth cone turning in PC12 cells; type: cell-based, rat; settings: for growth cone turning: PC12 cells exposed to a focal site of compound, FIGS. 8A-8E
Procedure: The ability of compounds to stimulate neurite elongation as determined by growth cone turning was evaluated in vitro. PC 12 cells were cultured as described above (see Example 1). Cells growing in culture were exposed to a focal site of Ribavirin and control compounds and the number of growth cones with a turning angle was measured and the turned angle of each growth cone was measured.

Fibroblasts = experiment: Effect on non-neuronal cells: fibroblasts; type: cell-based; settings: same experimental condition as PC12 and HCN cells
PC12 cells [2] = experiment: Neurite outgrowth / elongation in PC12 cells; type: cell-based, rat
Procedure: Neurite outgrowth was determined by measuring neurites from the cell body to the longest point and by counting the number of neurites per cell according to the method of Gysbers et al. (Gysbers et al., NeuroReport 3:997-1000 (1992) and Gysbers et al., Int. J. Dev. Neurosci. 14:19-34 (1996)). Cells are stained with antibodies for Rip, Glial Fibrillary Acidic Protein (GFAP), Microtubule Associated Protein 2ab (MAP2ab), and Calbindin (a Ca-buffering protein).
Briefly, cells were plated on poly-DL-ornithine-coated wells in 24-well plates at a concentration of 2.5×10^4 cells per well in RPMI-1640 medium containing 1.5% FCS, and 1.5% HS. Test compounds and NGF were added immediately after plating. […] The number of cells bearing neurites greater than one cell body diameter after each treatment with test compound was divided by the total number of cells counted.
The ratio of the number of cells bearing neurites in each treatment were divided by the total number of cells counted per treatment to determine the proportion of neurite bearing cells for each sample. The mean values (±S.E.M.) were then calculated for each treatment. […] The effect of the test compounds plus NGF is expressed as a percentage of the values obtained using 500 pg/ml NGF (which is given an arbitrary * value of 100% since neurite outgrowth proportions varied between experiments, usually from 20 to 35% for NGF-alone treatments). […]

HCN cells [3] = experiment: FGF-2 induced neurite elongation in HCN cells; type: cell-based; settings: HCN cells with FGF-2; 0.1, 0.5, 1, 100, 400 nM Ribavirin
astrocytes = experiment: Effect on non-neuronal cells: astrocytes; type: cell-based; settings: same experimental condition as PC12 and HCN cells
HCN cells [4] = tested on: HCN cells
PC12 cells [5] = experiment: Survival and proliferation of PC12 cells (cell counts); type: cell-based, rat
Procedure: PC12 cells were maintained in RPMI-1640 medium supplemented with 5% fetal calf serum (FCS), 5% heat-inactivated horse serum (HS), 100 units/ml penicillin G sodium, 100 μg/ml streptomycin sulfate and 0.245 μg/ml amphotericin B. NGF-treated cells were grown in the presence of 500 pg/ml mouse 2.5S NGF. The 1-(β-D-ribofuranosyl)-1H-1,2,4-triazole-3-carboxamide was supplied by ICN Pharmaceuticals. HCN cells were maintained in serum-free N2 basal media with 500 pg/ml of FGF-2. Cells were plated on plastic tissue culture plates coated with polyornithine.
PC12 cells were grown as described above and plated at a density of 10,000 cells/well in RPMI with 500 pg/ml NGF. […] Cells were counted and neurite elongation evaluated on days 0, 1 and 3. The media was not changed for the duration of the experiment.

Row | Molecule | growth cone turning (PC12 cells [1]) | effect on fibroblasts (Fibroblasts) | neurite elongation and networking (PC12 cells [2]; PC12 cells with NGF, 100 pM, 500 pM, 1 nM, 100 nM and 400 nM) | elongation and networking of the neurites (HCN cells [3]) | effective concentrations for growth cone turning (PC12 cells [1]; PC12 cells) | effect on astrocytes (astrocytes) | concentrations at which effects were more pronounced (HCN cells [4]; HCN cells with FGF-2) | effect on FGF-2 actions (proliferation, survival) (HCN cells [4]; HCN cells with FGF-2, up to 7 days, FIGS. 4 and 5) | effect on cell survival or proliferation (HCN cells [4]; HCN cells, Ribavirin alone (no FGF-2), 12,500 or 25,000 cells/well, FIG. 3) | effect on cell survival or proliferation (PC12 cells [5]; PC12 cells, absence of NGF, various concentrations, FIG. 1) | effects of NGF on the survival and proliferation of PC12 cells (PC12 cells [5]; with 500 pg/ml NGF, assessed at day 1 and day 3, FIG. 2) | neurite outgrowth proportions (proportion of neurite bearing cells) (PC12 cells [2]; NGF-alone treatments, 500 pg/ml NGF, varied between experiments)
1 | Nc1nc2c(nc(Br)n2[C@@H]2O[C@@H]3COP(=O)(O)O[C@H]3[C@H]2O)c(=O)[nH]1 [8-bromo-cGMP] | turning away from the site (i.e., repulsion | – | – | – | – | – | – | – | – | – | – | –
2 | NC(=O)c1ncn([C@@H]2O[C@H](CO)[C@@H](O)[C@H]2O)n1 [Ribavirin, 1-(β-D-ribofuranosyl)-1H-1,2,4-triazole-3-carboxamide] | stimulated growth cone turning; also recorded: increased turning towards the Ribavirin site (attraction) | without effect | enhanced at all concentrations tested | increased elongation and networking | nanomolar range | without effect | less than 1 nM | augmented/enhanced FGF-2 actions | no effect | No statistically significant effect | augmented/enhanced | –
3 | NGF: nerve growth factor; mouse 2.5S NGF at 500 pg/ml (protein, UniProt P01139 122-241, looked up, Beta-nerve growth factor, nerve growth factor; mouse 2.5S NGF at 500 pg/ml) Beta-nerve growth factor: SSTHPVFHMGEFSVCDSVSVWVGDKTTATDIKGKEVTVLAEVNINNSVFRQYFFETKCRASNPVESGCRGIDSKHWNSYCTTTHTFVKALTTDEKQAAWRFIRIDTACVCVLSRKATRRG | – | – | – | – | – | – | – | – | – | – | – | 20 to 35%
